How the values were obtained:
[1] = test system: FPR2 (wild type and mutant V113A); assay: cAMP inhibition assay, HEK293 cells, 5 μM forskolin; type: cell-based, human
Description: contribute to the effect of mutations on ligand binding and receptor signaling in addition to the direct disruption of receptor-ligand interaction.
To make the above clear, the statement “The effect of these mutations on ligand binding and receptor signaling could be explained by direct disruption of the receptor-ligand interaction, destabilization of ligand-binding pocket conformation, and/or impairment of global conformational rearrangement required for receptor activation” has been added to the […]
3) The authors use the crystal structures as an opportunity to dock other ligands with the their experimentally determined structure of FPR2. With the exception of LXA4, the docking of formyl peptides with mutagenesis experiments produce insightful results for fMLFK. For LXA4, more work is necessary to justify the docking pose. Otherwise, it is my opinion that it should […]
— We appreciated the reviewer’s comment. Functional assays for LXA4 are challenging due to the poor ability of this ligand to trigger calcium mobilization and IP accumulation. To verify the predicted binding mode of LXA4 in FPR2, we have performed additional assays by […]
fold while having minimal effect on the LXA4-induced cAMP reduction. […]
model of LXA4. […]
was detected and the concentrations were shown. […]
5) How was the omit map calculated to remove any bias for the agonist in SFig. […]

[2] = test system: FPR2; details: cited from earlier work
Description: This movement breaks the hydrogen bonds between the C-terminal NH2- group of the peptide and the receptor residues D106^3.33 and R201^5.38, and disrupts the polar interaction network establishe ...

[3] = test system: FPR2; design: method as in PMID 24285541; details: cited from earlier work
Experimental: To investigate the binding mode of formyl peptide in FPR2, molecular docking of this tripeptide to the FPR2 crystal structure was performed (Supplementary Data 2). […] It was also reported that the polar residue D281^7.32 was crucial for the interaction of FPR2 with certain formyl peptides. It was proposed that this negatively charged residue in FPR2 was repulsive with the C-terminal COO− group of fMLF and the negatively charged glutamate residue in fMLFE, but forms a stable interaction with the p ...

[4] = test system: FPR2; design: method as in 3 sources, ref 4 = [4]; PMID 24285541; doi:10.1074/jbc.M113.509216; 4. He HQ Troksa EL Caltabiano G Pardo L Ye RD Structural determinants for the interaction of formyl peptide receptor 2 with peptide ligands J. Biol. Chem. 2014 289 2295 2306 10.1074/jbc.M113.509216 24 ||| ref 34 = [34]; PMID 11818455; 34. Bae YS Kim Y Park JC Suh PG Ryu SH The synthetic chemoattractant peptide, Trp-Lys-Tyr-Met-Val-D-Met, enhances monocyte survival via PKC-dependent Akt activation J. Leukoc. Biol. 2002 71 329 338 11 ||| ref 35 = [35]; PMID 11285256; doi:10.1074/jbc.M007769200; 35. Christophe T The synthetic peptide Trp-Lys-Tyr-Met-Val-Met-NH 2 specifically activates neutrophils through FPRL1/lipoxin A 4 receptors and is an agonist for the orphan monocyte-expressed chemoattr; details: cited from earlier work

Molecule: CCCCC[C@H](O)/C=C/C=C\C=C\C=C\[C@@H](O)[C@@H](O)CCCC(=O)O [LXA4, lipoxin A4]
- effect of mutation on ligand-induced cAMP reduction ([1]; FPR2 V113A, 30 min): minimal
- change in intracellular cAMP ([1]; wild-type FPR2, 30 min): measurable changes

Molecule: WKYMVM-NH2
- reduction in EC50 in stimulating phosphoinositide hydrolysis relative to WKYMVm [2]: over 100 fold

Molecule: N-formyl-Met-Leu-Phe [fMLF]
- lower binding affinity ([3]; FPR2 compared to FPR1): over 400 fold
- lower potency in inducing Ca2+ mobilization ([4]; FPR2 compared to FPR1): 2000 fold

Molecule: fMLFII [formyl pentapeptide agonist]
- binding affinity over fMLF at FPR2 [3]: increased
- agonist potency over fMLF at FPR2 [4]: increased

— publication PMC7058083, “Structural basis of ligand binding modes at the human formyl peptide receptor 2” (Nature Communications, 2020)
